Data reported in patent US3997549A, “N-arylsulfenylated derivatives of benzofuranyl methylcarbamates” (priority 1973, dated 1976).
≈ marks a conversion by molar mass, not a printed value. Read-outs that look alike come from different tables or passages of the source.

Tests used:
Mexican bean beetle [1] = assay: whole plant or invertebrate; settings: Epilachna varivestis, 48 h, read-out: % Kill, BB (systemic)
granary weevil [2] = assay: Residual contact activity, granary weevil; settings: Sitophilus granarius, 48 h, read-out: % Kill, GW (residual contact)
two-spotted spider mite [3] = assay: Residual contact activity, two-spotted spider mite; settings: Tetranychus urticae, 48 h, read-out: % Kill, SM (residual contact)
granary weevil [4] = assay: Initial contact activity, granary weevil; settings: Sitophilus granarius, 48 h, read-out: % Kill, GW (initial contact)
in vivo = settings: mouse, po
Description: Acute oral toxicity of the compounds of the present invention to mice was determined after the manner of Hollingworth, Fukuto, and Metcalf in J. Agr. […] A dose of 0.25 ml of each solution was administered to each of four female white Swiss mice using the "bolus" - tipped syringe. […] Final mortality determinations were made forty-eight hours after treatment.

southern army worm [5] = assay: Initial contact activity, southern army worm; settings: 1250 ppm, 48 h exposure
houseflies = assay: whole plant or invertebrate; settings: Musca domestica, topical, 24 h, read-out: Houseflies LD50
Description: Toxicity of the compounds of the present invention to houseflies was tested using the technique described by March and Metcalf in Bull. Calif. State Dept. Agr. […] Adult female houseflies were treated with one drop of acetone solution, applied to the prothorax, using a syringe calibrated to deliver 1.00 ± 0.05 mm^3 drops. Twenty flies were treated at each dosage, each test compound was applied at 8 to 10 dosage levels. Each test was replicated three times. […] A one-inch square of cotton saturated with 40% sugar solution was provided for food in each carton. The cartons of flies were held in a constant temperature chamber at 60° F and 60% relative humidity for 24 hours before mortality counts were made. Flies totally unable to make crawling or walking movements were counted as dead. LD50 values were calculated in the conventional manner.

southern army worm [6] = assay: Residual contact activity, southern army worm; settings: 1250 ppm; 7 days; 2880 min
two-spotted spider mite [7] = assay: whole plant or invertebrate; settings: Tetranychus urticae, 48 h, read-out: % Kill, SM (systemic)
southern army worm [8] = settings: 2880 min
pea aphid [9] = assay: whole plant or invertebrate; settings: Acyrthosiphon pisum, 48 h, read-out: % Kill, PA (systemic)
plum curculio [10] = assay: Initial contact activity, plum curculio; settings: Conotrachelus nenuphar, 48 h, read-out: % Kill, PC (initial contact)
plum curculio [11] = assay: Residual contact activity, plum curculio; settings: Conotrachelus nenuphar, 48 h, read-out: % Kill, PC (residual contact)
Mexican bean beetle [12] = assay: Residual contact activity, Mexican bean beetle; settings: Epilachna varivestis, 48 h, read-out: % Kill, BB (residual contact)
milkweed bug [13] = assay: Initial contact activity, milkweed bug; settings: Oncopeltus fasciatus, 48 h, read-out: % Kill, MWB (initial contact)
confused flour beetle [14] = assay: Initial contact activity, confused flour beetle; type: in vivo; settings: Tribolium confusum; 1250 ppm, 48 h exposure; read-out: % Kill, FB (initial contact)
Description: (§1) Initial Contact Activity: One-half gram of test compound was dissolved in 40 ml of acetone and this solution was dispersed in 360 ml of water containing one drop of isooctyl phenyl polyethoxyethanol. An aliquot of this solution was diluted with water to provide a solution containing 1250 ppm of active ingredient. Test organisms and techniques were as follows: The activities against the Mexican bean beetle (Epilachna varivestis Muls.) and the southern army worm (Prodenia eridania [Cram.]) were evaluated by dipping the leaves of pinto bean plants into the test solution and infesting the leaves with the appropriate immature form insects when the foliage had dried; the activity against the pea aphid (Macrosiphum pisi [Harris]) was evaluated on broad bean plants whose leaves were dipped before infestation with adult aphids; the activity against the two-spotted spider mite (Tetranychus urticae [L.]) was evaluated on pinto bean plants whose leaves were dipped after infestation with adult mites; the activities against the milkweed bug (Oncopeltus fascinatus [Dallas]) and the plum curculio (Conotrachelus nenuphar [Herbst]) were evaluated by spraying the test solutions into glass dishes containing the adult insects; the activities against the granary weevil (Sitophilus granarius [L.]) and the confused flour beetle (Tribolium confusum [duVal]) were evaluated by introducing the insects into glass dishes which had been previously sprayed with test solution and allowed to dry. All organisms in the test were maintained in a holding room at 80° F. and 50% relative humidity for an exposure period of forty-eight hours. At this time the number of dead and living insects were counted and the percent kill was calculated.

confused flour beetle [15] = assay: Residual contact activity, confused flour beetle; type: in vivo; settings: Tribolium confusum, 48 h; 1250 ppm; 7 days; read-out: % Kill, FB (residual contact)
Description: as §1
The residual contact activity of the compounds was determined on the same organisms using the technique described above, except that in each case the treated surface was allowed to dry and was exposed to normal light and air for seven days before introduction of the mites or insects. The compounds show a high order of residual activity toward the test insects.

Culex fatigans = assay: whole plant or invertebrate; settings: Culex quinquefasciatus, 24 h, read-out: Mosquitoes LC50
Description: The appropriate amount of stock solution was added with stirring to 100 ml of tap water and 20-25 fourth instar larvae of Culex fatigans were placed in the solution. After twenty-four hours, the counts were taken. Larvae not able to rise to the surface on touch were counted as dead. Each concentration was run in duplicate and each material was run on two or three different days. The average percent mortality was plotted against the logarithm of the concentration (in ppm) and the LC50 value determined by inspection.

Mexican bean beetle [16] = assay: Initial contact activity, Mexican bean beetle; settings: Epilachna varivestis, 48 h, read-out: % Kill, BB (initial contact)
two-spotted spider mite [17] = assay: Initial contact activity, two-spotted spider mite; settings: Tetranychus urticae, 48 h, read-out: % Kill, SM (initial contact)
milkweed bug [18] = assay: Residual contact activity, milkweed bug; settings: Oncopeltus fasciatus, 48 h, read-out: % Kill, MWB (residual contact)
pea aphid [19] = assay: Initial contact activity, pea aphid; settings: Acyrthosiphon pisum, 48 h, read-out: % Kill, PA (initial contact)
pea aphid [20] = assay: Residual contact activity, pea aphid; settings: Acyrthosiphon pisum, 48 h, read-out: % Kill, PA (residual contact)
[21] = 39 ppm soil watering, group printed before the slash (separate test vs carbofuran)

Structure (SMILES)	mortality at 39 ppm (Mexican bean beetle [1]) [%]	mortality at 156 ppm (Mexican bean beetle [1]) [%]	mortality at 1250 ppm (granary weevil [2]) [%]	mortality at 1250 ppm (two-spotted spider mite [3]) [%]	mortality at 1250 ppm (granary weevil [4]) [%]	LD50 at 48 h (in vivo) [mg/kg]	% Kill, AW (initial contact) (southern army worm [5]) [%]	LD50 (houseflies) [mg/kg]	% Kill, AW (residual contact) (southern army worm [6]) [%]	mortality at 39 ppm (two-spotted spider mite [7]) [%]	mortality at 156 ppm (two-spotted spider mite [7]) [%]	% Kill, AW (systemic) (southern army worm [8]; 156 ppm soil watering) [%]	mortality at 39 ppm (pea aphid [9]) [%]	mortality at 1250 ppm (plum curculio [10]) [%]	mortality at 1250 ppm (plum curculio [11]) [%]	mortality at 1250 ppm (Mexican bean beetle [12]) [%]	mortality at 1250 ppm (milkweed bug [13]) [%]	LC50 (Culex fatigans) [ng/mL]	mortality at 1250 ppm (Mexican bean beetle [16]) [%]	mortality at 1250 ppm (two-spotted spider mite [17]) [%]	other results
Cc1ccccc1SN(C)C(=O)Oc1cccc2c1OC(C)(C)C2 [Example II, 2,3-Dihydro-2,2-dimethyl-7-benzofuranyl (methyl)(2-methylphenylthio)carbamate]	100	100	100	13	100	100 to 125	100	3.7	100	5	5	100	100	100	100	100	100	4 (≈ 0.0116 µM)	100	28	% Kill, AW (systemic) (southern army worm [8]; 39 ppm soil watering, separate test vs carbofuran): 85%; mortality at 1250 ppm (confused flour beetle [14]): 98%; mortality at 1250 ppm (confused flour beetle [15]): 98%; mortality at 1250 ppm (milkweed bug [18]): 100%
CN(Sc1ccc2c(c1)OCO2)C(=O)Oc1cccc2c1OC(C)(C)C2 [XIV, 2,3-Dihydro-2,2-dimethyl-7-benzofuranyl (methyl)(3,4-methylenedioxyphenylthio)carbamate]	90	94	100	2	100	10 to 25	100	5	100	10	16	64	100	100	80	100	100	6.5 (≈ 0.0174 µM)	100	38	% Kill, AW (systemic) (southern army worm [8]; [21]): 14%; mortality at 156 ppm (pea aphid [9]): 100%; mortality at 1250 ppm (pea aphid [19]): 100%; mortality at 1250 ppm (pea aphid [20]): 10%; mortality at 1250 ppm (milkweed bug [18]): 100%
CN(Sc1ccc(Cl)cc1)C(=O)Oc1cccc2c1OC(C)(C)C2 [Example V, 2,3-Dihydro-2,2-dimethyl-7-benzofuranyl (4-chlorophenylthio)(methyl)carbamate]	95	100	100	5	100	50	100	12.5	100	29	33	80	100	100	95	100	100	2 (≈ 0.0055 µM)	100	100	% Kill, AW (systemic) (southern army worm [8]; [21]): 50%; mortality at 156 ppm (pea aphid [9]): 100%; mortality at 1250 ppm (pea aphid [19]): 100%; mortality at 1250 ppm (pea aphid [20]): 95%; mortality at 1250 ppm (milkweed bug [18]): 100%
CN(Sc1nc2ccccc2s1)C(=O)Oc1cccc2c1OC(C)(C)C2 [Example VII, 2,3-Dihydro-2,2-dimethyl-7-benzofuranyl (2-benzothiazolylthio)(methyl)carbamate]	68	81	100	5	100	50	62	8.5	100	3	2	60	100	100	55	100	100	9.5 (≈ 0.0246 µM)	91	72	% Kill, AW (systemic) (southern army worm [8]; [21]): 0%; mortality at 156 ppm (pea aphid [9]): 100%; mortality at 1250 ppm (pea aphid [19]): 100%; mortality at 1250 ppm (pea aphid [20]): 0%; mortality at 1250 ppm (milkweed bug [18]): 100%
Cc1cc(Br)ccc1SN(C)C(=O)Oc1cccc2c1OC(C)(C)C2 [XI, 2,3-Dihydro-2,2-dimethyl-7-benzofuranyl (4-bromo-2-methylphenylthio)(methyl)carbamate]	95	100	100	3	100	100 to 150	100	11.2	100	23	28	100	100	100	40	100	100	2.5 (≈ 0.00592 µM)	100	9	% Kill, AW (systemic) (southern army worm [8]; [21]): 75%; mortality at 156 ppm (pea aphid [9]): 100%; mortality at 1250 ppm (pea aphid [19]): 35%; mortality at 1250 ppm (pea aphid [20]): 10%; mortality at 1250 ppm (milkweed bug [18]): 95%
